Laboratory results published in patent US20240109868A1, “EP300/CBP MODULATOR, PREPARATION METHOD THEREFOR AND USE THEREOF” (Miracure Biotechnology Limited, priority 2022, published 2024).
pIC50: −log10 of the molar value.

Legend:
[1] = tested on: 22Rv1 Cell; assay: 22RV1 cell growth inhibition, CellTiter-Glo, 72 h; type: cell-based; conditions: 22RV1 cells, 72 h culture
Procedure: (§1) 22RV1 or vCap cells were cultured in RPMI-1640 medium (10% fetal bovine serum and 100 units (per mL) of penicillin/streptomycin dual antibody were added to RPMI-1640) in a 37° C., 5% CO2 cell incubator. Cells at the logarithmic growth phase were inoculated onto a 96-well cell culture plate at 5×10^3 cells/100 μL/well and cultured overnight. Solutions of different concentrations of an active compound in DMSO were added, with the final concentration being 0.5% DMSO. The positive control was 1% TweeN2O, and the negative control was 0.5% DMSO. After 72 h of culture, an equal volume of CellTiter-Glo was added to each well, and the mixtures were mixed homogeneously by shaking for 2 min. The plate was let stand at room temperature for 10 min, and fluorescence signal values were read using a microplate reader. Data were analyzed using Prism 7.0 and graphs were generated. The values are shown as mean f SEM (N=2). […] The X-axis represents compound concentration (μM), and the Y-axis represents % inhibition.

[2] = tested on: vCap Cell; assay: vCap cell growth inhibition, CellTiter-Glo, 72 h; type: cell-based; conditions: vCap cells, 72 h culture
Procedure: as §1

SMILES | pIC50 ([1]; Homo sapiens, 22Rv1, 72 h) | pIC50 ([2]; Homo sapiens, VCaP, 72 h) | pIC50 [1] | pIC50 [2]
CSC1CCC(c2cc3c(c(N4CCCc5cc(-c6cnn(C)c6)c(C(F)F)cc54)c2)CN(C(C)=O)C3)CC1 (stereo not shown) [Compound M001315] | < 6.00 | > 6.00 | – | –
CNC(=O)N1Cc2cc(C3CCN(C)C(=O)C3)cc(N3CCCc4cc(-c5cnn(C)c5)c(C(F)F)cc43)c2C1 (stereo not shown) [Compound M001119] | < 6.00 | < 6.00 | – | –
CC(=O)N1Cc2cc(C3CCN(CC(F)(F)F)C(=O)C3)cc(N3CCCc4cc(-c5cnn(C)c5)c(C(F)F)cc43)c2C1 (stereo not shown) [Compound M001252] | > 6.00 | > 6.00 | – | –
CNC(=O)N1CCc2cc(C3CCN(CC(F)F)CC3)cc(N3CCCc4cc(-c5cnn(C)c5)c(C(F)F)cc43)c2C1 [Compound M001055] | < 6.00 | < 6.00 | – | –
CC(=O)N1Cc2cc(C3CCCNC3)cc(N3CCCc4cc(-c5cnn(C)c5)c(C(F)F)cc43)c2C1 (stereo not shown) [Compound M001048] | < 6.00 | < 6.00 | – | –
CNC(=O)N1Cc2cc(C3=CC4CCC(C3)N4C(=O)OC(C)(C)C)cc(N3CCCc4cc(-c5cnn(C)c5)c(C(F)F)cc43)c2C1 (stereo not shown) [Compound M001097] | < 6.00 | < 6.00 | – | –
CC(=O)N1Cc2cc(C3CCN(C(=O)c4cn(C)cn4)CC3)cc(N3CCCc4cc(-c5cnn(C)c5)c(C(F)F)cc43)c2C1 [Compound M001176] | > 6.00 | > 6.00 | – | –
CNC(=O)N1Cc2cc(C3CC4CCC(C3)N4C(=O)OC)cc(N3CCCc4cc(-c5cnn(C)c5)c(C(F)F)cc43)c2C1 (stereo not shown) [Compound M001137] | < 6.00 | < 6.00 | – | –
CNC(=O)N1CCc2cc([C@@H]3CCC(=O)N(C)C3)cc(N3CCCc4cc(-c5cnn(C)c5)c(C(F)F)cc43)c2C1 [Compound M001235] | > 6.00 | > 6.00 | – | –
COC(=O)N1Cc2cc(C3CCC(OC)CC3)cc(N3CCCc4cc(-c5cnn(C)c5)c(C(F)F)cc43)c2C1 (stereo not shown) [Compound M001203] | < 6.00 | < 6.00 | – | –
CC(=O)N1Cc2cc(N3CCN(C)CC3)cc(N3CCCc4cc(-c5cnn(C)c5)c(C(F)F)cc43)c2C1 [Compound M001003] | < 6.00 | < 6.00 | – | –
CNC(=O)N1CCc2cc(C3CCN(C(=O)C4CN(C)C4)CC3)cc(N3CCCc4cc(-c5cnn(C)c5)c(C(F)F)cc43)c2C1 [Compound M001084] | < 6.00 | < 6.00 | – | –
CNC(=O)N1CCc2cc(C3CCN(CC(F)(F)F)CC3)cc(N3CCCc4cc(-c5cnn(C)c5)c(C(F)F)cc43)c2C1 [Compound M001060] | < 6.00 | < 6.00 | – | –
CC(=O)N1Cc2cc(C3CCN(CC(F)(F)F)CC3)cc(N3CCCc4cc(-c5cnn(C)c5)c(C(F)F)cc43)c2C1 [Compound M001057] | < 6.00 | < 6.00 | – | –
CNC(=O)N1CCc2cc(C3=CCC4(CC3)OCCO4)cc(N3CCCc4cc(-c5cnn(C)c5)c(C(F)F)cc43)c2C1 [Compound M001090] | < 6.00 | < 6.00 | – | –
CNC(=O)N1CCc2cc(C3CCC(O)CC3)cc(N3CCCc4cc(-c5cnn(C)c5)c(C(F)F)cc43)c2C1 (stereo not shown) [Compound M001180] | < 6.00 | > 6.00 | – | –
COC(=O)N1C2CCC1CC(c1cc3c(c(N4CCCc5cc(-c6cnn(C)c6)c(C(F)F)cc54)c1)CN(C(C)=O)C3)C2 (stereo not shown) [Compound M001132] | < 6.00 | > 6.00 | – | –
CC(=O)N1Cc2cc(N3CCNCC3)cc(N3CCCc4cc(-c5cnn(C)c5)c(C(F)F)cc43)c2C1 [Compound M001002] | < 6.00 | < 6.00 | – | –
CNC(=O)N1CCc2cc([C@H]3CC[C@@H](NS(C)(=O)=O)CC3)cc(N3CCCc4cc(-c5cnn(C)c5)c(C(F)F)cc43)c2C1 [Compound M001313] | < 6.00 | > 6.00 | – | –
CCN1CCC(c2cc3c(c(N4CCCc5cc(-c6cnn(C)c6)c(C(F)F)cc54)c2)CN(C(=O)NC)CCC3)CC1=O (stereo not shown) [Compound M001263] | < 6.00 | < 6.00 | – | –
CC(=O)N1Cc2cc(C3CCN(S(=O)(=O)C4CC4)CC3)cc(N3CCCc4cc(-c5cnn(C)c5)c(C(F)F)cc43)c2C1 [Compound M001298] | > 6.00 | > 6.00 | – | –
CC(=O)N1Cc2cc([C@H]3CC[C@@H](N)CC3)cc(N3CCCc4cc(-c5cnn(C)c5)c(C(F)F)cc43)c2C1 [Compound M001321] | < 6.00 | < 6.00 | – | –
CNC(=O)N1Cc2cc(C3CCN(C(C)=O)CC3)cc(N3CCCc4cc(-c5cnn(C)c5)c(C(F)F)cc43)c2C1 [Compound M001161] | < 6.00 | > 6.00 | – | –
CC(=O)N1Cc2cc(C3CCN(C[C@H](C)O)CC3)cc(N3CCCc4cc(-c5cnn(C)c5)c(C(F)F)cc43)c2C1 [Compound M001030] | < 6.00 | < 6.00 | – | –

SMILES | pIC50 ([1]; Homo sapiens, 22Rv1, 72 h) | pIC50 ([2]; Homo sapiens, VCaP, 72 h) | pIC50 [1] | pIC50 [2]
CNC(=O)N1CCc2cc(C3CCN(CC(F)(F)F)C(=O)C3)cc(N3CCCc4cc(-c5cnn(C)c5)c(C(F)F)cc43)c2C1 (stereo not shown) [Compound M001253] | > 6.00 | > 6.00 | – | –
CON[C@H]1CC[C@@H](c2cc3c(c(N4CCCc5cc(-c6cnn(C)c6)c(C(F)F)cc54)c2)CN(C(C)=O)C3)CC1 [Compound M001340] | < 6.00 | < 6.00 | – | –
Cn1cc(-c2cc3c(cc2C(F)F)N(c2cccc4c2CNC(=O)CC4)CCC3)cn1 [Compound M001215, 9-[7-(difluoromethyl)-6-(1-methylpyrazol-4-yl)-3,4-dihydro-2H-quinolin-1-yl]-1,2,4,5-tetrahydro-2-benzazepin-3-one] | < 6.00 | < 6.00 | – | –
CNC(=O)N1Cc2cc(C3=CC4CCC(C3)N4)cc(N3CCCc4cc(-c5cnn(C)c5)c(C(F)F)cc43)c2C1 (stereo not shown) [Compound M001098] | < 6.00 | < 6.00 | – | –
Cn1cc(-c2cc3c(cc2C(F)F)N(c2cccc4c2CN(C(=O)C2CC2)CCC4)CCC3)cn1 [Compound M001214] | < 6.00 | < 6.00 | – | –
CC(=O)N1Cc2cc(C3CCN(CC(C)O)C(=O)C3)cc(N3CCCc4cc(-c5cnn(C)c5)c(C(F)F)cc43)c2C1 (stereo not shown) [Compound M001249] | – | – | > 6.00 | > 6.00
CCN1CCC(c2cc3c(c(N4CCCc5cc(-c6cnn(C)c6)c(C(F)F)cc54)c2)CN(C(=O)NC)CC3)CC1=O (stereo not shown) [Compound M001186] | > 6.00 | > 6.00 | – | –
CC(=O)N1Cc2cc([C@H]3CC[C@H](O)CC3)cc(N3CCCc4cc(-c5cnn(C)c5)c(C(F)F)cc43)c2C1 [Compound M001194] | < 6.00 | > 6.00 | – | –
CC(=O)N1CCc2cc(C3CCN(C)C(=O)C3)cc(N3CCCc4cc(-c5cnn(C)c5)c(C(F)F)cc43)c2C1 (stereo not shown) [Compound M001143] | < 6.00 | < 6.00 | – | –
CNC(=O)N1CCc2cc(N3CCNCC3)cc(N3CCCc4cc(-c5cnn(C)c5)c(C(F)F)cc43)c2C1 [Compound M001044] | < 6.00 | < 6.00 | – | –
CC(=O)N1Cc2cc(C3CCC(F)(F)CC3)cc(N3CCCc4cc(-c5cnn(C)c5)c(C(F)F)cc43)c2C1 [Compound M001066] | < 6.00 | < 6.00 | – | –
CC(=O)N1Cc2cc(C3CCN(C(C)=O)C3)cc(N3CCCc4cc(-c5cnn(C)c5)c(C(F)F)cc43)c2C1 (stereo not shown) [Compound M001053] | < 6.00 | > 6.00 | – | –
CC(=O)N1Cc2cc(C3CCNC(=O)C3)cc(N3CCCc4cc(-c5cnn(C)c5)c(C5CC5)cc43)c2C1 (stereo not shown) [Compound M001219, 4-{2-acetyl-7-[7-cyclopropyl-6-(1-methylpyrazol-4-yl)-3,4-dihydro-2H-quinolin-1-yl]-1,3-dihydroisoindol-5-yl}piperidin-2-one] | > 6.00 | > 6.00 | – | –
CNC(=O)N1CCc2cc(C3CC4CCC(C3)N4)cc(N3CCCc4cc(-c5cnn(C)c5)c(C(F)F)cc43)c2C1 (stereo not shown) [Compound M001089] | < 6.00 | < 6.00 | – | –
CC(=O)N1Cc2cc([C@H]3CC[C@@H](S(C)(=O)=O)CC3)cc(N3CCCc4cc(-c5cnn(C)c5)c(C(F)F)cc43)c2C1 [Compound M001299] | > 6.00 | > 6.00 | – | –
CNC(=O)N1CCc2cc(C3CCN(C)C3)cc(N3CCCc4cc(-c5cnn(C)c5)c(C(F)F)cc43)c2C1 (stereo not shown) [Compound M001051] | < 6.00 | < 6.00 | – | –
CNC(=O)N1CCc2cc(C3CCC(OC)CC3)cc(N3CCCc4cc(-c5cnn(C)c5)c(C(F)F)cc43)c2C1 (stereo not shown) [Compound M001199] | – | – | < 6.00 | < 6.00
CCN1CC(c2cc3c(c(N4CCCc5cc(-c6cnn(C)c6)c(C(F)F)cc54)c2)CN(C(C)=O)C3)CCC1=O (stereo not shown) [Compound M001224] | > 6.00 | > 6.00 | – | –
CC(=O)N1Cc2cc(C3CCC(N)CC3)cc(N3CCCc4cc(-c5cnn(C)c5)c(C(F)F)cc43)c2C1 (stereo not shown) [Compound M001320] | – | – | < 6.00 | < 6.00
CN1Cc2c(cc(C3CCNCC3)cc2N2CCCc3cc(-c4cnn(C)c4)c(C(F)F)cc32)CC1=O [Compound M001027] | < 6.00 | < 6.00 | – | –
CON1CCC(c2cc3c(c(N4CCCc5cc(-c6cnn(C)c6)c(C(F)F)cc54)c2)CN(C(=O)OC(C)(C)C)C3)CC1 [Compound M001275] | < 6.00 | < 6.00 | – | –
CNC(=O)N1Cc2cc([C@H]3CC[C@H](O)CC3)cc(N3CCCc4cc(-c5cnn(C)c5)c(C(F)F)cc43)c2C1 [Compound M001193] | < 6.00 | < 6.00 | – | –
CC(=O)N1CCc2cc(Cl)cc(N3CCCc4cc(-c5cnn(C)c5)c(C(F)F)cc43)c2C1 [Compound M001208] | < 6.00 | < 6.00 | – | –
